row,SMILES,melting point
1,CCCCC1(N(C)C)CCC(c2[nH]c3ccccc3c2C)(c2[nH]c3ccccc3c2CCN)CC1 (configuration not stated),105 to 112 °C
2,COc1cc2c(cc1Nc1ncc(Cl)c(Nc3cc(C(N)=O)ccc3OC)n1)CCN(C(=O)CN(C)C)CC2,226 to 233 °C
3,CCCCOC(=O)c1cc(=O)c2c3c(cc(Cl)c2o1)-c1ccc(S(=O)(=O)O)cc1CO3,95 to 97 °C
4,CC(=O)NC[C@H]1CN(c2cc(F)c(N3CCC(O)(COCC(F)(F)F)CC3)c(F)c2)C(=O)O1,182 to 184 °C
5,O=C(O)C(=O)N1CCC(=Cc2ccccc2)CC1,125 °C
6,CCOc1cnc(C(C)(C)OC(=O)Nc2ccc(-c3ncn(-c4ccc(OC(F)(F)F)cc4)n3)cc2)nc1,168 to 171 °C
7,COc1ccc(-n2nnnc2C(F)(F)F)c(OC)c1CBr,89.5 to 90 °C
8,CCCCCCSC1c2cccc(O)c2C(=O)c2c(O)cccc21,49 to 50 °C
9,Cc1cc(C)c(S(=O)(=O)N[C@@H](CNC(=O)c2ccc3c(cnn3CCc3cc(=O)[nH]c(N)n3)c2)C(=O)O)c(C)c1,194 to 195 °C
10,CCN(CC)C(=O)c1cccc(F)c1[Si](C)(C)C(C)(C)C,50 to 51 °C
11,Cc1cc2c(-c3ccccc3)c(CNC(=O)c3cc4ccccc4[nH]3)n(C)c(=O)c2cc1C,303 to 305 °C
12,CN1CCn2nc(Nc3cc(Cl)nn(COCC[Si](C)(C)C)c3=O)cc2C1,68 to 69 °C
13,COc1cc(OC)c(F)c(N=Cc2cnc(SC)nc2NC2CC2)c1F,172 to 174 °C
14,CC(=O)c1c(C(C)C)nn2ccccc12,74 °C
15,CNC(=O)Nc1nccc(Oc2ccc3c(C(=O)Nc4ccc(F)c(C(F)(F)F)c4)cccc3c2)n1,233 to 234 °C
16,CCC(=O)n1c(=O)n(-c2ccc([N+](=O)[O-])cc2)c(=O)n1C(=O)CC,140 to 142 °C
17,Cn1c(=O)c2c(N)ccnc2n(C)c1=O,233 to 235 °C
18,O=c1oc2ccc(Cl)cc2c(O)c1CCCOc1ccccc1,162 to 163 °C
19,O=C(NCCO)/C(=C/c1ccc(OC(F)(F)F)cc1)NC(=O)c1ccc(OCCC2CC2)cc1,142 to 144 °C
20,CC(C)(C)OC(=O)C(Cl)=CC1C(C(=O)O)C1(C)C (configuration not stated),65 °C
21,c1ccc(-c2nc(-c3ccc4c(c3)OCO4)c3cc4c(cc3n2)OCO4)cc1,225 to 230 °C
22,Cc1cc(Cl)c(C(N)=O)c(Cl)c1,101 to 107 °C
23,CC(=O)NC1C(O[Si](C)(C)C(C)(C)C)C=C(C(=O)O)OC1C(OCC(=O)O)C1COC(C)(C)O1 (configuration not stated),130 °C
24,C=C(C)c1ccc(C2COc3c(C)c(C)c(NC(=O)CC(C)(C)C)c(C)c32)cc1OC (configuration not stated),186 to 187 °C
25,COC(=O)c1cc(CCCCc2c(N)nc(N)nc2O)cs1,185 to 186 °C

row,SMILES,melting point
1,COc1ccc([N+](=O)[O-])cc1OCCCCl,85 to 87 °C
2,CCCCCC[C@H](F)CO,33 to 35 °C
3,COc1ccc(CSC2CNC(=O)C2)cc1 (configuration not stated),95 to 96 °C
4,COc1ccc(C2CC(c3ccc(O)cc3)C2)cc1 (configuration not stated),96 to 110 °C
5,CCOc1ccc([N+](=O)[O-])c(NC2CCCCCC2)c1,83 °C
6,COC[C@@H]1CC(c2ccc(-c3ccc(N4C[C@H](Cn5ccnn5)OC4=O)cc3F)cn2)=NO1,161 °C
7,CCOC(=O)Cn1c2c([nH]c(=O)c1=O)CCC1=C2C=C(n2ccc(C=O)c2)CC1,> 250 °C
8,COc1cc(NC(=O)Nc2ccccc2C)cc(OC)c1-c1ccc(C[C@H](NC(=O)c2c(Cl)cccc2Cl)C(=O)O)cc1,194 to 195 °C
9,CCCCc1nc2c(n1Cc1ccc(-c3ccccc3S(N)(=O)=O)cc1)C(=O)C(F)CS2 (configuration not stated),208 °C
10,CC(C)(C)c1cc(-c2ccc(NC(=O)[C@H]3CCCC[C@H]3C(=O)O)cc2)cc(C(C)(C)C)c1O (relative stereo),217 to 220 °C
11,CC(C)=CCOc1ccc2c(=O)c(C)c(-c3ccccc3)oc2c1C(=O)C=Cc1ccc(Cl)cc1,130 to 133 °C
12,Cn1cnnc1C(c1ccc(Cl)cc1)c1ccc2c(c1)c(-c1cccc(Cl)c1)cc(=O)n2C (configuration not stated),153 °C
13,CCOC(=O)C(CCC(=O)c1ccc(F)cc1)(NC(C)=O)C(=O)OCC,73 °C
14,c1cncc(-c2cc(Oc3ccc4cccnc4c3)ncn2)c1,155 to 158 °C
15,CCCCN1CC(=O)C(C(=O)OCC)C1=O (configuration not stated),121 to 123 °C
16,Cc1nc2ccccc2n1Cc1ccc(C(=O)O)cc1,300 °C
17,Cc1cccc(C(=O)Nc2c(NC(=O)CCl)ccc3c2C(=O)c2ccccc2C3=O)c1,202 to 203 °C
18,N#Cc1cc(F)c(N=C=S)cc1O,178 to 180 °C
19,CCOC(=O)c1c(Nc2cccc3ccccc23)n[nH]c1C,199 to 202 °C
20,COCCOc1ccc(C#CC2(O)CN3CCC2CC3)c(CO)c1 (configuration not stated),98.5 to 100 °C
21,c1ccc(COc2ccc(-c3nc(COc4ccc(CCCn5ccnc5)cc4)co3)cc2)cc1,133 to 134 °C
22,CCCCCCN(C[C@H]1CCC[C@H](CN(CCCCCC)C(=O)Nc2ccc(N(C)C)cc2)C1)C(=O)Nc1ccc(N(C)C)cc1 (relative stereo),121 to 125 °C
23,Nc1ccc(F)c(-c2ccc3ncccc3c2)c1F,178 to 179 °C
24,N#Cc1ccc(F)cc1C(F)(F)C(F)(F)c1ccccc1,68 to 70 °C
25,NC(=O)c1sc(-n2cnc3cnc(Cl)cc32)cc1OCc1ccccc1C(F)(F)F,248 to 249 °C

row,SMILES,melting point
1,CS(=O)(=O)Oc1ccccc1C(=O)O,125 to 126 °C
2,C=C1c2ccccc2CC(N)c2ccccc21 (configuration not stated),84.5 to 86.5 °C
3,CC(C)(n1cncn1)C(O)(Cn1cncn1)c1ccc(F)cc1F (configuration not stated),155 to 157 °C
4,O=C(NC12CC3CC(CC(C3)C1)C2)c1cc(O)c(O)c([N+](=O)[O-])c1,207 to 208 °C
5,CCOC(=O)NCCCC1OCC(c2cccc3ccccc23)CO1 (configuration not stated),93 to 94 °C
6,Cc1ccc(C(=O)C2=C(O)C(=O)N(c3ccc(C)nn3)C2c2ccc(C)cc2C)cc1 (configuration not stated),254 °C
7,O=C(c1ccc(O)c(Cc2ccc(=O)[nH]n2)c1)c1c(Cl)cc(Cl)cc1Cl,258 °C
8,CCOC(=O)c1cnn(C)c1O,134 to 135 °C
9,O=C1c2ccccc2C(=O)N1C[C@H](O)CCl,100 to 101 °C
10,CC(C)(C)OC(=O)Nc1cc(OCc2ccccc2)c2ncccc2c1I,118 to 119 °C
11,CN1CCc2cc(O)c(O)c(Sc3cccs3)c2CC1,189 to 191 °C
12,Nc1ccc(CC(=O)N2CCCC2)cc1N,105 to 108 °C
13,CCOC(=O)c1cn(CCF)c2nc(S(=O)(=O)CC)c(F)cc2c1=O,176 to 178 °C
14,CC(C)c1nc(C(C)C)c(CSc2cccc(F)c2)c(-c2ccc(F)cc2)c1CO,99 to 100 °C
15,O=C(NCc1ccccc1)c1cc(N2CCN(Cc3ccc(F)cc3)C2=O)n[nH]1,262 to 263 °C
16,Cc1nc2c(OCc3ccccc3F)cccn2c1CC#N,172 to 173 °C
17,CCN1C(=O)C(C)(C)N=C(c2ccccc2F)c2cc([N+](=O)[O-])cc(Cl)c21,156 °C
18,CCOc1ccc(-c2nc(-c3cc(C(=O)OC)c4oc(C)cc4c3)cs2)cc1OCC,144 to 145 °C
19,COc1cc(Nc2ccnc(Nc3cc(OC)c(OC)c(OC)c3)n2)cc(OC)c1,180 °C
20,CCCCc1nn(CC(=O)c2ccccc2)c(=O)n1Cc1ccc(-c2ccccc2-c2nnn[nH]2)cc1,89 to 92 °C
21,CN(C)c1ccc(NC(=O)Cn2c(-c3ccc(Cl)cc3)nc3cccnc32)cc1,245 to 246 °C
22,O=C(O)c1cccc(-c2cc(-c3ccc(C(F)(F)F)cc3)no2)c1,272 to 273 °C
23,COc1cccc(-c2ccc3c(c2)c(C(=O)C(=O)O)cn3Cc2ccc(C(C)(C)C)cc2)c1,86 to 87 °C
24,CC(=O)Oc1ccc(C#Cc2ccccc2)cc1,104 to 106 °C
25,COC(=O)c1ccccc1S(=O)(=O)NC(=O)Nc1nc(N(C)C)c2nc(C)c(C)nc2n1,196 °C

row,SMILES,melting point
1,COC1(NC(=O)OCc2ccccc2)CNC1=O (configuration not stated),112 to 114 °C
2,Cc1cn(N=Cc2cccnc2)c(=O)n1N=Cc1cccnc1,176 to 178 °C
3,Cc1ccc(S(=O)(=O)c2ccc(N3CCN(C)CC3)cc2N)cc1,148 to 151 °C
4,COc1cc(Cl)nc(Oc2cccc(Oc3nc(OC)cc(OC)n3)c2C(=O)O)n1,150 to 152 °C
5,COCCC(O)c1cc2c(=O)n(NS(C)(=O)=O)c(=O)[nH]c2cc1C(F)(F)F (configuration not stated),180 to 184 °C
6,O=C(O)c1ccc(-n2cnnc2S)cc1,> 300 °C
7,COc1ccc(-c2coc3cc(OC(C)C)ccc3c2=O)cc1,245 to 246 °C
8,COc1cccc(Oc2c(NS(=O)(=O)c3ccc(C(C)(C)C)cc3)ncnc2OCCOc2ncc(Br)cn2)c1,168 °C
9,CSc1ccc(CC(=O)NC(NC(=NC#N)Nc2cccc3ncccc23)C(C)(C)C)cc1 (configuration not stated),188 to 189 °C
10,OCC1CCCc2c1ncn2C(c1ccccc1)(c1ccccc1)c1ccccc1 (configuration not stated),168 to 170 °C
11,CCC(=O)NCCC1CCc2cc(Br)c3c(c21)C=CCO3 (configuration not stated),110 to 111 °C
12,CC(C)(C)OC(=O)NCCN1CC2CNCC(C1)O2,91 to 93 °C
13,CCN1CCN(Cc2nc3sc(Br)cc3c(=O)n2-c2ccccc2Cl)CC1,155 to 158 °C
14,COc1cc(Oc2cccc(C(F)(F)F)c2)nc(C(=O)NO)c1,120 to 122 °C
15,Cc1ccc(S(=O)(=O)N2CCCC(CS(=O)(=O)c3ccccc3)C2)cc1 (configuration not stated),135 to 136 °C
16,N#Cc1cccn1-c1ccc(CN2C(=O)c3ccccc3C2=O)cc1,167 to 168 °C
17,CCOC(=O)C(=O)CC(=O)c1cn(Cc2ccc(OC)cc2)c2ccccc2c1=O,154 to 156 °C
18,CC(C)(C)OC(=O)N1CCC(Oc2ccccc2C(C)(C)C)C1 (configuration not stated),81 to 82 °C
19,CCOC(=O)c1nc(NC(C)=O)sc1Cc1cccc(SC)c1,188 °C
20,COc1c(O)ccc(C(=O)c2ccccc2)c1[N+](=O)[O-],169 to 171 °C
21,CC(C(=O)NN)c1cn[nH]c1-c1ccc(-c2ccccc2)cc1O (configuration not stated),138 to 141 °C
22,CCCC(=O)Nc1ccc(C(=O)Nc2ccc3cc(CN4CCCC4)cnc3c2C)cc1,192 to 194 °C

# From a melting point compilation (Tetko et al.; mined from patent text by program, amines drawn as free bases though some values may be those of a salt)
